Patent US10125118B2, “Heteroaryl compounds and their use as therapeutic drugs” (Dong-A Socio Holdings Co., Ltd., priority 2015, dated 2018)
Where two headings read alike, the source gives them in different places.

Columns and labels:
[1] = test system: CD8-MerTK in Ba/F3-CDM cells; test: In cell MER kinase assay, Ba/F3-CDM cell proliferation without IL-3 (Celltiter-Glo); type: cell-based, murine; settings: 48 hours compound treatment, read-out: Cell growth inhibition (GI50)
In short: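 Ba/F3 cells, IL-3-dependent, transfected with CD8-MerTK and grown without IL-3 in DMEM/10% FBS. IL-3-supplemented Ba/F3 cells run in parallel as a cytotoxicity control.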

[2] = molecular target: human c-MER catalytic domain (Homo sapiens (Human), UniProt Q12866); test: LanthaScreen TR-FRET kinase assay, c-MER
Chain of human c-MER catalytic domain (Q12866 587-858): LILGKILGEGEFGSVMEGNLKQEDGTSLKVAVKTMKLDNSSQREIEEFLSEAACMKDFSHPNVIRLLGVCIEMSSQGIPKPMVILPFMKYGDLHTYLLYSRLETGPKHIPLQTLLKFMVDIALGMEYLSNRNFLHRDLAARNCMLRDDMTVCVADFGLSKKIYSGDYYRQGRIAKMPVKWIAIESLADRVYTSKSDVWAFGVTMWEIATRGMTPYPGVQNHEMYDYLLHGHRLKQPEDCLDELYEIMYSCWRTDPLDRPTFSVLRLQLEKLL

[3] = read-out: Mer TK inhibition (IC50), Biochemical IC50, TR-FRET, 10 uM ATP

Structure (SMILES)	GI50 [1] [nM]	IC50 [2, 3] [nM]	IC50 [2] [nM]
CN1CCN(Cc2ccc(-c3ccc(CO[C@H]4CCC[C@@H]4NC(=O)c4cc(-c5cnn(C(F)(F)C(F)F)c5)cnc4N)cc3)cc2)CC1 [Example 387]	< 100	< 10	
CCc1cc(CO[C@H]2CNC[C@@H]2NC(=O)c2cc(-c3cnn(C)c3)cnc2N)ccc1C [Example 388, 2-amino-N-((3S,4S)-4-((3-ethyl-4-methylbenzyl)oxy)pyrrolidin-3-yl)-5-(1-methyl-1H-pyrazol-4-yl)nicotinamide]	100 to 500		< 10
CCc1cc(CO[C@H]2CNC[C@@H]2NC(=O)c2cc(-c3ccc(CO)cc3)cnc2N)ccc1C [Example 389, 2-amino-N-((3S,4S)-4-((3-ethyl-4-methylbenzyl)oxy)pyrrolidin-3-yl)-5-(4-(hydroxymethyl)phenyl)nicotinamide]	100 to 500	< 10	
CCc1cc(CO[C@H]2CNC[C@@H]2NC(=O)c2cc(-c3ccc(CN4CCN(C)CC4)cc3)cnc2N)ccc1C [Example 390, 2-amino-N-((3S,4S)-4-((3-ethyl-4-methylbenzyl)oxy)pyrrolidin-3-yl)-5-(4-((4-methylpiperazin-1-yl)methyl)phenyl)nicotinamide]	100 to 500	< 10	
CCc1cc(CO[C@H]2CNC[C@@H]2NC(=O)c2cc(-c3ccc(C(N)=O)cc3)cnc2N)ccc1C [Example 391, 2-amino-5-(4-carbamoylphenyl)-N-((3S,4S)-4-((3-ethyl-4-methylbenzyl)oxy)pyrrolidin-3-yl)nicotinamide]	> 1000	< 10	
CCc1cc(CO[C@H]2CNC[C@@H]2NC(=O)c2cc(-c3ccccc3)cnc2N)ccc1C [Example 394, 2-amino-N-((3S,4S)-4-((3-ethyl-4-methylbenzyl)oxy)pyrrolidin-3-yl)-5-phenylnicotinamide]	500 to 1000	< 10	
CCc1cc(CO[C@H]2CNC[C@@H]2NC(=O)c2cc(-c3ccncc3)cnc2N)ccc1C [Example 395, 6-amino-N-((3S,4S)-4-((3-ethyl-4-methylbenzyl)oxy)pyrrolidin-3-yl)-[3,4′-bipyridine]-5-carboxamide]	500 to 1000	< 10	
CCc1cc(CO[C@H]2CNC[C@@H]2NC(=O)c2cc(-c3cccnc3)cnc2N)ccc1C [Example 396, 6-amino-N-((3S,4S)-4-((3-ethyl-4-methylbenzyl)oxy)pyrrolidin-3-yl)-[3,3′-bipyridine]-5-carboxamide]	> 1000	< 10	
CCc1cc(CO[C@H]2CNC[C@@H]2NC(=O)c2cc(-c3ccc(C=O)cc3)cnc2N)ccc1C [Example 399, 2-amino-N-((3S,4S)-4-((3-ethyl-4-methylbenzyl)oxy)pyrrolidin-3-yl)-5-(4-formylphenyl)nicotinamide]	500 to 1000		< 10
CCc1cc(CO[C@H]2CNC[C@@H]2NC(=O)c2cc(-c3ccc(C#N)cc3)cnc2N)ccc1C [Example 400, 2-amino-5-(4-cyanophenyl)-N-((3S,4S)-4-((3-ethyl-4-methylbenzyl)oxy)pyrrolidin-3-yl)nicotinamide]	500 to 1000	< 10	
CCc1cc(CO[C@H]2CNC[C@@H]2NC(=O)c2cc(-c3ccc(NS(C)(=O)=O)cc3)cnc2N)ccc1C [Example 401, 2-amino-N-((3S,4S)-4-((3-ethyl-4-methylbenzyl)oxy)pyrrolidin-3-yl)-5-(4-(methylsulfonamido)phenyl)nicotinamide]	> 1000	< 10	
CCc1cc(CO[C@H]2CNC[C@@H]2NC(=O)c2cc(-c3ccc(N(C)C)cc3)cnc2N)ccc1C [Example 405, 2-amino-5-(4-(dimethylamino)phenyl)-N-((3S,4S)-4-((3-ethyl-4-methylbenzyl)oxy)pyrrolidin-3-yl)nicotinamide]	100 to 500	< 10	
CCc1cc(CO[C@H]2CNC[C@@H]2NC(=O)c2cc(-c3ccc(CC#N)cc3)cnc2N)ccc1C [Example 411, 2-amino-5-(4-(cyanomethyl)phenyl)-N-((3S,4S)-4-((3-ethyl-4-methylbenzyl)oxy)pyrrolidin-3-yl)nicotinamide]	100 to 500	< 10	
CCc1cc(CO[C@H]2CNC[C@@H]2NC(=O)c2cc(-c3cnn(C4CCNCC4)c3)cnc2N)ccc1C [Example 412, 2-amino-N-((3S,4S)-4-((3-ethyl-4-methylbenzyl)oxy)pyrrolidin-3-yl)-5-(1-(piperidin-4-yl)-1H-pyrazol-4-yl)nicotinamide]	> 1000	< 10	
CCc1cc(CO[C@H]2CNC[C@@H]2NC(=O)c2cc(-c3cnn(C4CCN(C)CC4)c3)cnc2N)ccc1C [Example 413, 2-amino-N-((3S,4S)-4-((3-ethyl-4-methylbenzyl)oxy)pyrrolidin-3-yl)-5-(1-(1-methylpiperidin-4-yl)-1H-pyrazol-4-yl)nicotinamide]	500 to 1000	< 10	
Cc1ccc(CO[C@H]2CNC[C@@H]2NC(=O)c2cc(-c3cnn(C)c3)cnc2N)cc1 [Example 415, 2-amino-5-(1-methyl-1H-pyrazol-4-yl)-N-((3S,4S)-4-((4-methylbenzyl)oxy)pyrrolidin-3-yl)nicotinamide]	> 1000	< 10	
CCc1cccc(CO[C@H]2CNC[C@@H]2NC(=O)c2cc(-c3cnn(C)c3)cnc2N)c1 [Example 416, 2-amino-N-((3S,4S)-4-((3-ethylbenzyl)oxy)pyrrolidin-3-yl)-5-(1-methyl-1H-pyrazol-4-yl)nicotinamide]	100 to 500	< 10	
CCc1cc(CO[C@H]2CNC[C@@H]2NC(=O)c2cc(-c3ccc(C(=O)NC4CCN(C)CC4)cc3)cnc2N)ccc1C [Example 419, 2-amino-N-((3S,4S)-4-((3-ethyl-4-methylbenzyl)oxy)pyrrolidin-3-yl)-5-(4-((1-methylpiperidin-4-yl)carbamoyl)phenyl)nicotinamide]	> 1000	< 10	
CCc1cc(CO[C@H]2CN(C)C[C@@H]2NC(=O)c2cc(-c3cnn(C)c3)cnc2N)ccc1C [Example 426, 2-amino-N-((3S,4S)-4-((3-ethyl-4-methylbenzyl)oxy)-1-methylpyrrolidin-3-yl)-5-(1-methyl-1H-pyrazol-4-yl)nicotinamide]	500 to 1000	< 10	
CCc1cc(CO[C@H]2CN(C)C[C@@H]2NC(=O)c2cc(-c3cnn(C4CCN(C)CC4)c3)cnc2N)ccc1C [Example 433, 2-amino-N-((3S,4S)-4-((3-ethyl-4-methylbenzyl)oxy)-1-methylpyrrolidin-3-yl)-5-(1-(1-methylpiperidin-4-yl)-1H-pyrazol-4-yl)nicotinamide]	100 to 500	< 10	
CN1CCN(Cc2ccc(-c3ccc(CO[C@H]4CNC[C@@H]4NC(=O)c4cc(-c5cnn(C)c5)cnc4N)cc3)cc2)CC1 [Example 434, 2-amino-5-(1-methyl-1H-pyrazol-4-yl)-N-((3S,4S)-4-((4′-((4-methylpiperazin-1-yl)methyl)-[1,1′-biphenyl]-4-yl)methoxy)pyrrolidin-3-yl)-nicotinamide]	500 to 1000	< 10	
CN1CCN(Cc2ccc(-c3ccc(CO[C@H]4CN(C)C[C@@H]4NC(=O)c4cc(-c5cnn(C)c5)cnc4N)cc3)cc2)CC1 [Example 435, 2-amino-5-(1-methyl-1H-pyrazol-4-yl)-N-((3S,4S)-1-methyl-4-((4′-((4-methylpiperazin-1-yl)methyl)-[1,1′-biphenyl]-4-yl)methoxy)pyrrolidin-3-yl)-nicotinamide]	100 to 500	< 10	
CN1CCN(Cc2ccc(-c3ccc(CO[C@H]4CNC[C@@H]4NC(=O)c4cc(-c5cnn(C)c5)cnc4N)cc3)cc2C(F)(F)F)CC1 [Example 436, 2-amino-5-(1-methyl-1H-pyrazol-4-yl)-N-((3S,4S)-4-((4′-((4-methylpiperazin-1-yl)methyl)-3′-(trifluoromethyl)-[1,1′-biphenyl]-4-yl)methoxy)-pyrrolidin-3-yl)nicotinamide]	500 to 1000	< 10	
CN1CCN(Cc2ccc(-c3ccc(CO[C@H]4CN(C)C[C@@H]4NC(=O)c4cc(-c5cnn(C)c5)cnc4N)cc3)cc2C(F)(F)F)CC1 [Example 437, 2-amino-5-(1-methyl-1H-pyrazol-4-yl)-N-((3S,4S)-1-methyl-4-((4′-((4-methylpiperazin-1-yl)methyl)-3′-(trifluoromethyl)-[1,1′-biphenyl]-4-yl)-methoxy)pyrrolidin-3-yl)nicotinamide]	< 100	< 10	
CC(c1ccc(-c2ccc(CO[C@H]3CNC[C@@H]3NC(=O)c3cc(-c4cnn(C)c4)cnc3N)cc2)cc1)N1CCN(C)CC1 (stereo partly drawn) [Example 438, 2-amino-5-(1-methyl-1H-pyrazol-4-yl)-N-((3S,4S)-4-((4′-(1-(4-methylpiperazin-1-yl)ethyl)-[1,1′-biphenyl]-4-yl)methoxy)pyrrolidin-3-yl)-nicotinamide]	500 to 1000	< 10	
CC(c1ccc(-c2ccc(CO[C@H]3CN(C)C[C@@H]3NC(=O)c3cc(-c4cnn(C)c4)cnc3N)cc2)cc1)N1CCN(C)CC1 (stereo partly drawn) [Example 439, 2-amino-5-(1-methyl-1H-pyrazol-4-yl)-N-((3S,4S)-1-methyl-4-((4′-(1-(4-methylpiperazin-1-yl)ethyl)-[1,1′-biphenyl]-4-yl)methoxy)pyrrolidin-3-yl)-nicotinamide]	100 to 500	< 10	
Cn1cc(-c2cnc(N)c(C(=O)N[C@H]3CNC[C@@H]3OCc3ccc(-c4ccc(C(C)(C)N5CCN(CCO)CC5)cc4)cc3)c2)cn1 [Example 440, 2-amino-N-((3S,4S)-4-((4′-(2-(4-(2-hydroxyethyl)piperazin-1-yl)propan-2-yl)-[1,1′-biphenyl]-4-yl)methoxy)pyrrolidin-3-yl)-5-(1-methyl-1H-pyrazol-4-yl)nicotinamide]	> 1000	< 10	
CN1C[C@H](NC(=O)c2cc(-c3cnn(C)c3)cnc2N)[C@@H](OCc2ccc(-c3ccc(C(C)(C)N4CCN(CCO)CC4)cc3)cc2)C1 [Example 441]	100 to 500	< 10	
